Data on 69 compounds can be found in patent US9346769B2, “Tetrazolones as inhibitors of fatty acid synthase” (Infinity Pharmaceuticals, Inc., priority 2010, dated 2016).

One may read the IC50 as the point on the concentration scale where inhibition reaches its midpoint.

This assay addresses T1, human FASN (Homo sapiens, UniProt P49327).
T1 construct: was purified from SKBR3 cells using procedures modified from those in Jayakumar et al; endogenous in cells; host or cells: SKBR3 human breast cancer cells (ATCC); Endogenous enzyme purified by ammonium sulfate precipitation and a mono Q column
Briefly: FASN NADPH Consumption Assay. Particulars: human FASN purified from SKBR3 cells; starred symbols. In kind it is biochemical. The protocol:
Human FASN protein (SEQ ID NO. 1) was purified from SKBR3 cells using procedures modified from those in Jayakumar et al. PNAS 1995, 92:8695-8699. SKBR3 cells were obtained from ATCC and grown in DMEM high glucose medium supplemented with 10% FBS, 1 μg/mL bovine pancreas insulin, 100 U/mL penicillin and 100 µg/mL streptomycin. The confluent cells were trypsinized and washed three times with PBS buffer before frozen in liquid N2 and stored at −80° C. Frozen cells were thawed on ice and resuspended in lysis buffer (25 mM Tris-HCl, pH 7.0, 15 mM NaCl, 1 mM EDTA, and 1 mM DTT) with protease inhibitors. The cells were lysed by sonication, and the cell debris was removed by centrifugation at 20,000 rpm for 30 min. To the supernatant, neutralized saturated ammonium sulfate solution was added to a final concentration of 35%. The solution was left on ice for 1 hr, and the precipitated proteins were harvested by centrifugation at 20,000 rpm for 30 min. The proteins were redissolved in lysis buffer without NaCl and loaded on a mono Q column. Bound proteins were eluted with a linear gradient of NaCl in lysis buffer. Each fraction was analyzed by SDS-PAGE and FASN NADPH consumption assay. The fractions containing FASN were pooled and concentrated to 2-3 mg/mL. Glycerol was added to 20%, and the protein was frozen in liquid N2 and stored at −80° C.
All chemicals were purchased from Sigma (St. Louis, Mo.). The procedures of NADPH consumption assay were similar to those described in Cox et al., PNAS 1983, 80:4233-4237. On a 96-well polypropylene microplate, dilution series (typical concentrations 60 nM-1.0 mM) of test compounds were prepared in DMSO, of which 4.0 μL each was transferred to a black polystyrene assay microplate and mixed with 36 μL FASN assay buffer (50 mM potassium phosphate, pH 7.0, 1.0 mM EDTA, 0.01% NP-40) plus 5.0 mM fresh DTT. FASN protein (40 μL 150 nM FASN) was added per well, and the microplate was incubated at 37° C. for 30 min. Enzyme activity measurement was initiated by addition of 20 μL 5× substrate mixture to final concentrations of 60 nM FASN, 2.4 nM-40 μM compound, 0.2 mM NADPH, 50 μM butyryl-CoA, 0.5 mM malonyl-CoA in 100 μL assay buffer plus 5.0 mM DTT and 4.0% DMSO. NADPH consumption was monitored kinetically by fluorescence (λEx=340 nm, λEm=460 nm) on an EnVision 2100 multilabel plate reader (Perkin Elmer, Waltham, Mass.). FASN enzyme activity (slope) in the presence of 4% DMSO was used as maximum control, whereas background (minimum control) was measured by omission of malonyl-CoA in the substrate mixture. Inhibition curves were fitted by a logistic function to yield IC50 values:
Compounds were assayed as inhibitors of human FASN using the above-described FASN Scintillation Proximity Flashplate Assay (IC50; nM) or FASN NADPH Consumption Assay (*) (IC50; nM). The corresponding activity of the isolated compound is also provided along with the measured mass (ES^+).

T1 sequence (P49327 whole entry): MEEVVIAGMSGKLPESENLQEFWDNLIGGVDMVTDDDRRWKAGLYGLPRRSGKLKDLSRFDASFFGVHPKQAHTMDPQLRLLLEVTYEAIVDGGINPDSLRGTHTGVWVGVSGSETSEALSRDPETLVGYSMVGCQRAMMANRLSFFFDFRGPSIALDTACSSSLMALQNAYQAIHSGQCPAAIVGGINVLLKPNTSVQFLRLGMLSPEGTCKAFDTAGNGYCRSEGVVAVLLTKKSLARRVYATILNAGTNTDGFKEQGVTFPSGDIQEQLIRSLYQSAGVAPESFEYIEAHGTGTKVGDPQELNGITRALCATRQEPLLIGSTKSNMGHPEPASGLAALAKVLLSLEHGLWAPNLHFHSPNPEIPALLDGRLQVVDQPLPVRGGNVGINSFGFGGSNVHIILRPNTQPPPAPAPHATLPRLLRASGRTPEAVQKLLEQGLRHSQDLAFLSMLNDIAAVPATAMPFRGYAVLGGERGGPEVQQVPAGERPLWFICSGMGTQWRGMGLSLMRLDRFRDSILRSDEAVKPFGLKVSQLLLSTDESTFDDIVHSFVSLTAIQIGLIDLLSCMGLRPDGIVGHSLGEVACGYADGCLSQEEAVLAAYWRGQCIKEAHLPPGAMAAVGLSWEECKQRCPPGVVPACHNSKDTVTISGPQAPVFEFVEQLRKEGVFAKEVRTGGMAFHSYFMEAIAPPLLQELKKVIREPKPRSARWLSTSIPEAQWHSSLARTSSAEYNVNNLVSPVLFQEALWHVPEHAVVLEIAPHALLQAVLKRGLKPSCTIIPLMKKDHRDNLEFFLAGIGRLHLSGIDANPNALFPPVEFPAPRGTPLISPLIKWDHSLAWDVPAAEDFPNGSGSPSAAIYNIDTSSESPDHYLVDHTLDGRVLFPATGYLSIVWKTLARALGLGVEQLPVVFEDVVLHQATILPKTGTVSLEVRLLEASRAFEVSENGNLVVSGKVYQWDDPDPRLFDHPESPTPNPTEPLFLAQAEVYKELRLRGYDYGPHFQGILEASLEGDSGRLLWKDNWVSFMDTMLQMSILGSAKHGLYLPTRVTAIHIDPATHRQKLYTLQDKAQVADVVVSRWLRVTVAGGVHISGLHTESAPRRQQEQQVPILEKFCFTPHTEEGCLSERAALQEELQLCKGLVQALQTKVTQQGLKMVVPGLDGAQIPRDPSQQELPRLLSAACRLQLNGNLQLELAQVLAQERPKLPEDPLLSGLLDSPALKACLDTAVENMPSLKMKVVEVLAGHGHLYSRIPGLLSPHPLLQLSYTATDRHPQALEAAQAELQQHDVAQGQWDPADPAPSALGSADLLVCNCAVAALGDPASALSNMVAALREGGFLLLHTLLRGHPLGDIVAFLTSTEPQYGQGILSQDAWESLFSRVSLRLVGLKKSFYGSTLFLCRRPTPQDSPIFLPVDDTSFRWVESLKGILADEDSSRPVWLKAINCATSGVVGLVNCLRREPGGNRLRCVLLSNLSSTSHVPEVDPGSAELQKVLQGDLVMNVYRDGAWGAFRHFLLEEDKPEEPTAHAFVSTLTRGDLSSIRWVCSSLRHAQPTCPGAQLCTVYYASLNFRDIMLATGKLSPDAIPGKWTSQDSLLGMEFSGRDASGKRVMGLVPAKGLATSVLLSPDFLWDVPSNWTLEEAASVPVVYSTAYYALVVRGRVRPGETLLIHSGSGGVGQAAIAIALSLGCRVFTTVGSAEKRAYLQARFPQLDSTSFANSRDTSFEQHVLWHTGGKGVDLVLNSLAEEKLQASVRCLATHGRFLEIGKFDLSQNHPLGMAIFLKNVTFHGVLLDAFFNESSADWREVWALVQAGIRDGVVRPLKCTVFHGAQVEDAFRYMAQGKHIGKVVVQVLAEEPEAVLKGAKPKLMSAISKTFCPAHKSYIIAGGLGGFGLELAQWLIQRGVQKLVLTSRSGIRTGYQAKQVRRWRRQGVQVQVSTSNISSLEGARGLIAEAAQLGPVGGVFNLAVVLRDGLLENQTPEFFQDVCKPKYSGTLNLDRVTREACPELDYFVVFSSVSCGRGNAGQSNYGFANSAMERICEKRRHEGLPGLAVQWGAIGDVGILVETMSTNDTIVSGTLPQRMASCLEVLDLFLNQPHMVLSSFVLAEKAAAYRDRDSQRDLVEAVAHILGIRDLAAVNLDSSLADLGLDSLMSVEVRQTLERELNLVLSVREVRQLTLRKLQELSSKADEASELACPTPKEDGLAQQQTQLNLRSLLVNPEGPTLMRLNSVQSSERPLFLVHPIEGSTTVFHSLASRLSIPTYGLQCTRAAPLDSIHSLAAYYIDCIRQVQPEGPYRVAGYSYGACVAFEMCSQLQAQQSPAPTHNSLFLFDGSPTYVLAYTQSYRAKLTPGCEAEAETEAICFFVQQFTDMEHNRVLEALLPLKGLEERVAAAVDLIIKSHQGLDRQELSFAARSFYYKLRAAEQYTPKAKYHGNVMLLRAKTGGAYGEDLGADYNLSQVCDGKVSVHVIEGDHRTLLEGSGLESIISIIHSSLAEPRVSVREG

`O=C(Nc1ccccc1)n1nnn(-c2ccccc2)c1=O` displayed an IC50 of more than 10000 nM.
As to `CCN(C(=O)n1nnn(-c2ccccc2)c1=O)c1cc(C(=O)O)ccc1OC`, the IC50 lay within 60 to 250 nM.
The same measure for `O=C(O)c1ccc(N(CCc2ccccc2)C(=O)n2nnn(-c3ccccc3)c2=O)cc1`: 250 to 1000 nM; for `CCN(C(=O)n1nnn(-c2ccccc2OC)c1=O)c1ccc(C(=O)OCc2ccccc2)c(OC)c1`: 60 to 250 nM.
The same measure for `CCN(C(=O)n1nnn(-c2ccccc2OC)c1=O)c1ccc(C(=O)O)cc1OC`: 60 to 250 nM; for `CCN(C(=O)n1nnn(-c2ccccc2OC)c1=O)c1ccc(C(=O)O)c(OC)c1`: 60 to 250 nM; for `CCN(C(=O)n1nnn(-c2ccccc2OC)c1=O)c1cccc(C(=O)O)c1OC`: 250 to 1000 nM.
The same measure for `COc1ccccc1-n1nnn(C(=O)N(c2ccccc2)c2ccc(C(=O)O)cc2)c1=O`: less than 60 nM; for `CCCOc1ccc(C(=O)O)cc1N(CC)C(=O)n1nnn(-c2ccccc2OC)c1=O`: 250 to 1000 nM.
For the compound `CCCCCCN(C(=O)n1nnn(-c2ccccc2OC)c1=O)c1cc(C(=O)O)ccc1OC`, the IC50 fell in the range of 250 to 1000 nM.
Compound `CCN(C(=O)n1nnn(-c2ccccc2OC)c1=O)c1cc(C(=O)O)ccc1Cl` registered an IC50 of less than 60 nM.
In turn, `COc1ccc(C(=O)O)cc1N(CCCc1ccccc1)C(=O)n1nnn(-c2ccccc2OC)c1=O` showed an IC50 of 250 to 1000 nM.
`CCN(C(=O)n1nnn(-c2ccccc2OC)c1=O)c1cc(C(=O)O)ccc1OC(C)C` showed an IC50 of 1000 to 10000 nM.
Under `CN(C(=O)n1nnn(-c2ccccc2Cl)c1=O)c1ccccc1` stands 250 to 1000 nM; under `CC(C)N(C(=O)n1nnn(-c2ccccc2Cl)c1=O)c1ccccc1`, 250 to 1000 nM; under `CN(C(=O)n1nnn(-c2ccccc2Cl)c1=O)c1ccc(Br)cc1`, 60 to 250 nM.
The compound `C=CCN(C(=O)n1nnn(-c2ccccc2Cl)c1=O)c1ccccc1` showed an IC50 of 60 to 250 nM.
As to `CN(C(=O)n1nnn(-c2ccccc2Cl)c1=O)c1cccc(F)c1`, the IC50 lay in the range of 250 to 1000 nM.
For the compound `C/C=C(/C)c1ccc(N(C)C(=O)n2nnn(-c3ccccc3Cl)c2=O)cc1`, the IC50 lay in the range of 250 to 1000 nM.
Under `CN(C(=O)n1nnn(-c2ccccc2Cl)c1=O)c1ccccc1F` stands 60 to 250 nM; under `CCN(C(=O)n1nnn(-c2ccccc2Cl)c1=O)c1ccccc1`, 60 to 250 nM.
For `CN(C(=O)n1nnn(-c2ccccc2Br)c1=O)c1ccccc1`, the IC50 fell in the range of 250 to 1000 nM.
Under `CN(C(=O)n1nnn(-c2ccccc2F)c1=O)c1ccccc1` stands 250 to 1000 nM; under `CCN(C(=O)n1nnn(-c2c(F)cccc2F)c1=O)c1ccc([N+](=O)[O-])cc1F`, 60 to 250 nM; under `CCN(C(=O)n1nnn(-c2c(F)cccc2F)c1=O)c1ccc(Br)cc1`, less than 60 nM.
In the case of `O=C(N(CCO)c1ccccc1)n1nnn(-c2c(F)cccc2F)c1=O`, the IC50 is 1000 to 10000 nM.
`CCN(C(=O)n1nnn(-c2c(Cl)cccc2Cl)c1=O)c1cccc(N)c1` came in with an IC50 of 60 to 250 nM.
The same measure for `CCN(C(=O)n1nnn(-c2c(Cl)cccc2Cl)c1=O)c1ccc([N+](=O)[O-])cc1`: 60 to 250 nM.
In turn, `CCN(C(=O)n1nnn(-c2c(Cl)cccc2Cl)c1=O)c1cccc([N+](=O)[O-])c1` gave an IC50 of 60 to 250 nM.
`CS(=O)(=O)NCCCN(C(=O)n1nnn(-c2c(Cl)cccc2Cl)c1=O)c1ccc(C(=O)O)cc1` registered a 50% inhibitory concentration (IC50) of 1000 to 10000 nM.
Under `CCN(C(=O)n1nnn(-c2c(Cl)cccc2Cl)c1=O)c1ccc(C(=O)OCc2ccccc2)c(OC)c1` stands 60 to 250 nM; under `CCN(C(=O)n1nnn(-c2c(Cl)cccc2Cl)c1=O)c1cccc(CO[Si](C)(C)C(C)(C)C)c1`, 60 to 250 nM; under `O=C(OCc1ccccc1)c1ccc(N(CCc2cccnc2)C(=O)n2nnn(-c3c(Cl)cccc3Cl)c2=O)cc1`, 250 to 1000 nM.
Under `O=C(O)c1ccc(N(CCc2cccnc2)C(=O)n2nnn(-c3c(Cl)cccc3Cl)c2=O)cc1` stands 1000 to 10000 nM.
`CCN(C(=O)n1nnn(-c2c(Cl)cccc2Cl)c1=O)c1ccc(C(=O)O)cc1OC` yielded an IC50 of 60 to 250 nM.
With `CCN(C(=O)n1nnn(-c2c(Cl)cccc2Cl)c1=O)c1ccc([N+](=O)[O-])cc1F`, the IC50 lay within 250 to 1000 nM.
With `CCN(C(=O)n1nnn(-c2c(Cl)cccc2Cl)c1=O)c1cccc(C(=O)NS(=O)(=O)c2ccccc2)c1`, the IC50 was less than 60 nM.
For the compound `CCN(C(=O)n1nnn(-c2c(Cl)cccc2Cl)c1=O)c1cccc(CO)c1`, the IC50 fell in the range of 250 to 1000 nM.
Under `CCN(C(=O)n1nnn(-c2c(Cl)cccc2Cl)c1=O)c1ccc(N)cc1` stands 60 to 250 nM.
For the compound `CCN(C(=O)n1nnn(-c2c(Cl)cccc2Cl)c1=O)c1ccccc1`, the IC50 lay within 250 to 1000 nM.
Regarding `C=CCN(C(=O)n1nnn(-c2c(Cl)cccc2Cl)c1=O)c1ccccc1`, the 50% inhibitory concentration (IC50) lay within 1000 to 10000 nM.
Take `CCN(C(=O)n1nnn(-c2c(Cl)cccc2Cl)c1=O)c1ccc(C(=O)OCc2ccc(OC)cc2)cc1Cl`: the IC50 lay within 60 to 250 nM.
Under `CN(C(=O)n1nnn(-c2c(Cl)cccc2Cl)c1=O)c1ccccc1` stands 60 to 250 nM; under `O=C(OCc1ccccc1)c1ccc(N(CCc2ccccc2)C(=O)n2nnn(-c3c(Cl)cccc3Cl)c2=O)cc1`, more than 10000 nM; under `CCN(C(=O)n1nnn(-c2c(Cl)cccc2Cl)c1=O)c1cccc(NS(=O)(=O)C(F)(F)F)c1`, 60 to 250 nM.
The same measure for `CCN(C(=O)n1nnn(-c2c(OC)cccc2OC)c1=O)c1ccc(C(=O)O)c(OC)c1`: 250 to 1000 nM; for `CCN(C(=O)n1nnn(-c2c(OC)cccc2OC)c1=O)c1ccc(C(=O)OCc2ccccc2)c(OC)c1`: 250 to 1000 nM.
`CCN(C(=O)n1nnn(-c2c(F)cccc2OC)c1=O)c1ccc(C(=O)OCc2ccccc2)c(OC)c1` had an IC50 of less than 60 nM.
The same measure for `COc1cccc(F)c1-n1nnn(C(=O)N(c2cccc(C(=O)O)c2)C2CC2)c1=O`: 60 to 250 nM; for `CCCCOc1ccccc1N(CC)C(=O)n1nnn(-c2c(F)cccc2OC)c1=O`: 250 to 1000 nM; for `CCN(C(=O)n1nnn(-c2c(F)cccc2OC)c1=O)c1ccccc1C(C)(C)C`: 1000 to 10000 nM.
Under `CCN(C(=O)n1nnn(-c2c(F)cccc2C(=O)O)c1=O)c1ccccc1Oc1ccccc1` stands 1000 to 10000 nM; under `CCN(C(=O)n1nnn(-c2c(F)cccc2C(=O)OC)c1=O)c1ccccc1`, 60 to 250 nM; under `CCN(C(=O)n1nnn(-c2c(F)cccc2C#Cc2ccccc2)c1=O)c1ccccc1`, 60 to 250 nM.
In turn, `CCN(C(=O)n1nnn(-c2c(F)cccc2C#Cc2ccccc2C)c1=O)c1ccccc1` registered an IC50 of 60 to 250 nM.
In turn, `CCN(C(=O)n1nnn(-c2c(F)cccc2CCc2ccccc2)c1=O)c1ccccc1` gave an IC50 of 60 to 250 nM.
Turning to `CCN(C(=O)n1nnn(-c2c(F)cccc2CCc2ccccc2C)c1=O)c1ccccc1`, the IC50 is 60 to 250 nM.
`CCN(C(=O)n1nnn(-c2c(F)cccc2Br)c1=O)c1ccccc1`: the IC50 was 60 to 250 nM.
Under `CCN(C(=O)n1nnn(-c2c(F)cc(F)cc2Br)c1=O)c1ccccc1` stands 60 to 250 nM; under `CN(C(=O)n1nnn(-c2ccccc2Cl)c1=O)c1ccccn1`, 1000 to 10000 nM; under `CN(C(=O)n1nnn(-c2c(F)cccc2F)c1=O)c1ccccn1`, 250 to 1000 nM.
Under `CN(Cc1ccccc1)C(=O)n1nnn(-c2ccccc2Cl)c1=O` stands 1000 to 10000 nM.
Turning to `COc1ccc(CNC(=O)n2nnn(-c3c(Cl)cccc3Cl)c2=O)c(OC)c1`, the IC50 is more than 10000 nM.
In the case of `CN(CCc1ccccc1)C(=O)n1nnn(-c2ccccc2Cl)c1=O`, the IC50 was more than 10000 nM.
The same measure for `O=C(OCc1ccccc1)c1ccc2c(c1)CCCN2C(=O)n1nnn(-c2c(Cl)cccc2Cl)c1=O`: 1000 to 10000 nM; for `O=C(N1c2ccccc2Sc2ccccc21)n1nnn(-c2c(F)cccc2F)c1=O`: less than 60 nM.
Under `O=C(N1CCOc2ccccc21)n1nnn(-c2c(F)cccc2F)c1=O` stands 1000 to 10000 nM; under `O=C(N1Cc2ccccc2Cc2ccccc21)n1nnn(-c2c(F)cccc2F)c1=O`, 60 to 250 nM.
For `O=C(N1CCCCc2ccccc21)n1nnn(-c2c(F)cccc2F)c1=O`, the IC50 was in the range of 60 to 250 nM.
